# Measurements: US20260256872A1, “PEPTIDE FOR TREATING DEMYELINATING DISEASES AND USE THEREOF” (KINE SCIENCES Co., Ltd., priority 2023, published 2026)
# Key:
# [1] = system: chronic inflammatory demyelinating polyneuropathy (CIDP) animal model; assay: Clinical score in CIDP animal model (EAN P0(180-199)); type: in vivo, Lewis rats
# Description: Female Lewis rats (7 weeks old) were obtained and acclimatized for one week. Thereafter, solution A was prepared by dissolving peripheral myelin PO protein (180-199) in 0.9% saline at a concentration of […], and solution B was prepared by dissolving Mycobacterium tuberculosis in Freund's incomplete adjuvant at a concentration of […]. A sterile 50 ml tube was placed in an ice box, and solutions A and B were mixed at a ratio of 1:1. The mixture was then homogenized using a homogenizer for 15 minutes to prepare an emulsion. The prepared emulsion was loaded into a 1 ml syringe, the syringe needle was replaced with a 25G needle, and the syringe was stored in an ice box containing ice until use. The emulsion (200 μL) was subcutaneously (S.C.) injected into the tail of the Lewis rats to induce the disease. […]
# In order to examine the progression of CIDP following administration of KINE-101, the severity of CIDP over time after administration of KINE-101 to the CIDP animal model was evaluated and measured using a clinical score.
# Specifically, during administration of KINE-101 by the method described in Example <2-1>, the symptoms were evaluated on a scale of 0 to 5 according to the criteria shown in Table 3 below. […] The severity of CIDP was quantified by calculating the average value of the results evaluated for each individual.
# [2] = system: chronic inflammatory demyelinating polyneuropathy (CIDP) animal model; assay: Demyelination in peripheral nerve tissues (TEM), CIDP animal model; type: in vivo, Lewis rats; settings: KINE-101 50 mg/kg I.V.; hind limb peripheral nerve
# Description: Female Lewis rats (7 weeks old) were obtained and acclimatized for one week. Thereafter, solution A was prepared by dissolving peripheral myelin PO protein (180-199) in 0.9% saline at a concentration of […], and solution B was prepared by dissolving Mycobacterium tuberculosis in Freund's incomplete adjuvant at a concentration of […]. A sterile 50 ml tube was placed in an ice box, and solutions A and B were mixed at a ratio of 1:1. The mixture was then homogenized using a homogenizer for 15 minutes to prepare an emulsion. The prepared emulsion was loaded into a 1 ml syringe, the syringe needle was replaced with a 25G needle, and the syringe was stored in an ice box containing ice until use. The emulsion (200 μL) was subcutaneously (S.C.) injected into the tail of the Lewis rats to induce the disease. […] From the day following disease induction, KINE-101 dissolved in DPBS was intravenously (I.V.) administered three times per week at doses of 1, 5, 25, and 50 mg/kg.
# Tissue cross-sections were then observed using a transmission electron microscope (TEM) to evaluate the degree of myelin loss. In addition, comparisons were made with the normal group (Normal) and the CIDP-induced group (EAN PO (180-199)).
# CIDP animal model [3] = assay: Clinical score in CIDP animal model (S-palmP0(180-199)), KINE-101 vs IVIg; type: in vivo, Lewis rats
# [4] = Body weight change in CIDP animal model (S-palmP0(180-199)); type: in vivo, Lewis rats
# Description: (§1) Specifically, male Lewis rats (7 weeks old) were obtained and acclimatized for one week. Thereafter, solution A was prepared by dissolving s-palm PO, in which palmitic acid is conjugated to cysteine at the 181st amino acid of peripheral myelin PO protein described in <Example 2>, in saline at a concentration of 2 mg/mL. Solution B was prepared by dissolving Mycobacterium tuberculosis in Freund's adjuvant at a concentration of 5 mg/mL. A sterile 25 mL tube was placed in an ice box, and solutions A and B were mixed at a ratio of 1:1 and homogenized for 15 minutes using a homogenizer to prepare an emulsion. The emulsion (200 μL) was then administered by subcutaneous injection at the base of the rat tail to induce the disease. […] The KINE-101 administration groups received KINE-101 dissolved in DPBS at doses of 6.25, 12.5, 25, and 37.5 mg/kg by intravenous injection (I.V.) three times per week for 15 days, starting the day after disease induction. The IVIg administration group received IVIg at a dose of 400 mg/kg once daily for 5 days starting the day after disease induction. The experiment was terminated on day 15 after disease induction.
# Specifically, body weight was measured during administration of KINE-101 or IVIg by the method described in Example <3-1>, and the change in body weight was calculated relative to the body weight before disease induction (Day 0).
# CIDP animal model [5] = assay: Nerve conduction studies (MNCV, CMAP, SNCV, SNAP) in CIDP animal model; type: in vivo, Lewis rats
# Description: as §1
# (§2) Specifically, KINE-101 or IVIg was administered by the method described in Example <3-1>, and after completion of the experiment, the animals were anesthetized with 1.5% isoflurane and examined. The fur from the distal region of the hind limb to the upper region was removed, and nerve conduction studies for measuring motor and sensory nerves were performed using a Nicolet VikingQuest device as the electrophysiological examination instrument. For the nerve conduction study, a needle electrode was placed on the motor nerve or sensory nerve, and a reference electrode was placed on the gastrocnemius muscle. The stimulating cathode was positioned in the middle of the posterior thigh near the recording electrode, and stimulation was applied at both distal and proximal sites. Motor nerve conduction velocity (MNCV) and compound muscle action potential (CMAP) of the motor nerve, as well as sensory nerve conduction velocity (SNCV) and sensory nerve action potential (SNAP) of the sensory nerve, were measured.
# [6] = system: acquired peripheral nerve injury animal model; assay: Nerve conduction studies in acquired peripheral nerve injury animal model; type: in vivo, C57BL/6 mice
# Description: as §2
# (§3) Specifically, a uniform nerve injury model can be obtained by damaging the nerve emerging from the spinal cord at a predetermined intensity for a certain period of time, and since both the intensity and duration can be controlled, it is possible to establish a nerve injury model that persists for a desired period. For the disease induction groups, the boundary region between the gluteal muscle and the femoral muscle of the mouse was incised to expose the sciatic nerve. The nerve was then grasped and injured for a predetermined period using a surgical tool (MacJam) at one of three intensities (stages 1, 2, or 3; stage 3 for 3 seconds was used as the reference), after which the incision was sutured to establish an acquired peripheral nerve injury animal model. From the day following disease induction, KINE-101 dissolved in DPBS was administered intravenously (I.V.) at doses of 10, 50, and 100 mg/kg three times per week for a total of four weeks.
# Specifically, mice were anesthetized with 1.5% isoflurane at weeks 0, 3, and 6 after administration of KINE-101 according to the method described in Example <4-1>, and MNCV, CMAP, SNCV, and SNAP were measured by the same method described in Example <3-4> to determine whether motor nerves and sensory nerves were damaged.
# [7] = system: acquired peripheral nerve injury animal model; assay: Rotarod test in acquired peripheral nerve injury animal model; type: in vivo, C57BL/6 mice; settings: weeks 3 and 6; all KINE-101-treated groups (10, 50, 100 mg/kg); vs Injury Ctr
# Text: as §3, with “From the day following disease induction, KINE-101 dissolved in DPBS was administered intravenously (I.V.) at doses of 10, 50, and 100 mg/kg three times per week for a total of four weeks.” left out
# Demyelinating diseases are known to be accompanied by symptoms such as muscle weakness and impaired balance. […] Specifically, the phenotype of the experimental animals was analyzed using rotarod, grip strength, and tail suspension tests. […] Using a rotarod apparatus (ROTA ROD, LE8205, Panlab), the time during which the animal remained on the rotating rod was measured for 2 minutes and 30 seconds at a fixed speed of 8 rpm. For each evaluation, three trials were conducted, and the maximum duration among the trials was analyzed.
# [8] = system: acquired peripheral nerve injury animal model; assay: Histopathological examination of nerve tissues (toluidine blue, TEM), acquired peripheral nerve injury animal model; type: in vivo, C57BL/6 mice; settings: for myelinated axons and unmyelinated fibers: vs acquired peripheral nerve injury group
# Text: as §3
# Specifically, KINE-101 was administered to the acquired peripheral nerve injury animal model for four weeks according to the method described in Example <4-1>, and the experimental animals were sacrificed six weeks after the start of administration. Thereafter, peripheral nerve tissues of the hind limbs were isolated and fixed in a 4% paraformaldehyde solution containing 2.5% glutaraldehyde. After ethanol dehydration, the tissues were embedded in epoxy resin and semi-thin sections (1 μm) were prepared. The semi-thin sections were stained with toluidine blue for 5-10 seconds and observed under a light microscope. In addition, ultra-thin sections (65 nm) were prepared, and tissue cross-sections were observed using a transmission electron microscope (TEM) to examine abnormalities of myelin (demyelination, dysmyelination, and hypermyelination).
# Treg cells = assay: Treg cell proportion and activation in lymph nodes at nerve injury site (flow cytometry); type: in vivo, C57BL/6 mice
# Text: as §3
# Specifically, KINE-101 was administered to the acquired peripheral nerve injury animal model for four weeks according to the method described in Example <4-1>, and the experimental animals were sacrificed six weeks after the start of administration. Thereafter, immune cells were isolated from the lymph nodes at the nerve injury site of the experimental animals. The isolated immune cells were subjected to fluorescent staining for CD4 and Foxp3 proteins, and the proportion of Treg cells among CD4 T cells was determined by flow cytometry. In addition, fluorescent staining for the CTLA4 protein, which is an activation marker of Treg cells, was performed, and the level of CTLA4 expression in Treg cells was compared by flow cytometric analysis to evaluate the degree of activation.
# [9] = all KINE-101-treated groups (6.25-37.5 mg/kg I.V.), after day 15
# [10] = all KINE-101-treated groups, IVIg 400 mg/kg
# [11] = week 3, KINE-101 10 mg/kg I.V. three times per week for four weeks
# [12] = week 3, KINE-101 50 mg/kg I.V. three times per week for four weeks
# [13] = week 6, KINE-101 50 mg/kg I.V. three times per week for four weeks
# [14] = weeks 3 and 6, KINE-101-treated groups (10, 50, 100 mg/kg)
sequence,measurement,setting,value
"PSPPSPPSP [KINE-101, trimeric polymer prepared using a PSP fragment (PSP monomer)]",clinical score,[1]; KINE-101 50 mg/kg I.V. three times per week,lowest clinical score
same,clinical score (CIDP symptoms),"[1]; all KINE-101-treated groups (1, 5, 25, 50 mg/kg I.V. three times per week), vs CIDP-induced group",alleviation of symptoms after day 15
same,"demyelination (degree of myelin loss, TEM)",[2],demyelination was suppressed similarly to that observed in the normal group
same,clinical score,CIDP animal model [3]; KINE-101 25 mg/kg I.V. three times per week,lowest clinical score
same,clinical score,"CIDP animal model [3]; all KINE-101-treated groups (6.25 mg/kg to 37.5 mg/kg I.V. three times per week), day 15 after disease induction",lower clinical scores on day 15 after disease induction compared with the negative control group
same,body weight improvement effect,[4]; KINE-101 12.5 mg/kg I.V.,most pronounced body weight improvement effect
same,body weight gain vs negative control group,[4]; KINE-101-treated groups (6.25-37.5 mg/kg I.V.),greater body weight gain compared with the negative control group
same,body weight vs before disease induction (Day 0),"[4]; KINE-101-treated groups, day 15 after disease induction",maintained significantly higher body weight than that before disease induction
same,MNCV and CMAP,CIDP animal model [5]; KINE-101 12.5 mg/kg I.V.,most pronounced effect
same,SNCV and SNAP,CIDP animal model [5]; KINE-101 12.5 mg/kg I.V.,most pronounced effect
same,compound muscle action potential (CMAP),CIDP animal model [5]; [9],higher MNCV and CMAP values compared with the negative control group
same,motor nerve conduction velocity (MNCV),CIDP animal model [5]; [9],higher MNCV and CMAP values compared with the negative control group
same,sensory nerve action potential (SNAP),CIDP animal model [5]; [9],higher SNCV and SNAP values compared with the negative control group
same,sensory nerve conduction velocity (SNCV),CIDP animal model [5]; [9],higher SNCV and SNAP values compared with the negative control group
same,MNCV and CMAP vs IVIg-treated group,CIDP animal model [5]; [10],effects similar to or superior to those of the IVIg-treated group
same,SNCV and SNAP vs IVIg-treated group,CIDP animal model [5]; [10],effects similar to those of the IVIg-treated group
same,CMAP,[6]; [11],11.0±2.3 mV
same,SNCV,[6]; [11],27.7±2.8 m/s
same,MNCV,[6]; [12],46.7±7.4 m/s
same,SNAP,[6]; [12],11.2±3.1 μV
same,SNCV,[6]; [12],27.6±2.2 m/s
same,SNCV,"[6]; week 3, KINE-101 100 mg/kg I.V. three times per week for four weeks",28.6±3.7 m/s
same,CMAP,[6]; [13],32.9±4.0 mV
same,MNCV,[6]; [13],63.9±7.6 m/s
same,SNAP,[6]; [13],12.3±2.9 μV
same,SNCV,[6]; [13],27.9±3.1 m/s
same,MNCV,"[6]; week 6, KINE-101 100 mg/kg I.V. three times per week for four weeks",59.0±4.5 m/s
same,MNCV,"[6]; week 6, KINE-101-treated groups (10, 50, 100 mg/kg)",increased
same,CMAP,[6]; [14],increased compared with those in the acquired peripheral nerve injury group
same,SNAP,[6]; [14],increased compared with those in the acquired peripheral nerve injury group
same,muscle strength and balance (rotarod),[7],improved muscle strength and balance
same,myelinated axons and unmyelinated fibers,[8]; KINE-101 50 mg/kg,marked increase in myelinated axons and a decrease in unmyelinated fibers
same,myelinated axons and unmyelinated fibers,[8]; KINE-101 100 mg/kg,marked increase in myelinated axons and a decrease in unmyelinated fibers
same,myelination,"[8]; KINE-101-treated groups (10, 50, 100 mg/kg), six weeks after start of administration, vs Injury Ctr",improved myelination
same,number of large myelinated fibers and small unmyelinated fibers,"[8]; KINE-101-treated groups, six weeks after start of administration",an increase in the number of large myelinated fibers and a decrease in the number of small unmyelinated fibers
same,CTLA4 expression in Treg cells (activation marker),Treg cells; KINE-101 50 mg/kg,increased to a statistically significant level
same,proportion of Treg cells among CD4 T cells in lymph nodes at nerve injury site,Treg cells; KINE-101 50 mg/kg,increased to a statistically significant level
same,CTLA4 expression in Treg cells (activation marker),"Treg cells; KINE-101-treated groups (10, 50, 100 mg/kg)",increased
same,proportion of Treg cells among CD4 T cells in lymph nodes at nerve injury site,"Treg cells; KINE-101-treated groups (10, 50, 100 mg/kg), six weeks after start of administration",increased
